Experiments:
[1] = molecular target: T1, FGFR3 kinase recombinant protein (Homo sapiens, UniProt P22607); assay: Inhibition of FGFR kinase activity, ADP-Glo method; type: biochemical; conditions: 30 min preincubation
T1 construct: purchased BPS Bioscience
Protocol: (§1) The inhibitory activities of the test substances on FGFR kinase were determined by the ADP-Glo method. The human FGFR1, FGFR2 and FGFR4 kinase recombinant proteins and kinase activity assay kit ADP-Glo™ were purchased from Promega, and the FGFR3 kinase recombinant protein was purchased from BPS Bioscience. The test substance, which was diluted gradiently from 1000 nM, was incubated with the FGFR1, FGFR2, FGFR3 or FGFR4 kinase recombinant protein for 30 minutes, reacted with the substrate in the presence of ATP, and ADP-Glo™ detected the generated ADP and further produced chemiluminescence signals. Microplate reader (Perkin Elmer, Envision) were used to determine the reading for each well, and the origin 7.5 was used to calculate and analyze the IC50, i.e. the concentration at which 50% inhibition occurred.
(§2) The inhibition of the compounds of the present invention on FGFR1-4 kinase activity was measured by the above test, and the measured IC50 (nM) values are shown in Table 1.

[2] = molecular target: T2, FGFR4 kinase recombinant protein (Homo sapiens, UniProt P22455); assay: Inhibition of FGFR kinase activity, ADP-Glo method; type: biochemical; conditions: 30 min preincubation
T2 construct: purchased Promega
T2 sequence (P22455 22-802): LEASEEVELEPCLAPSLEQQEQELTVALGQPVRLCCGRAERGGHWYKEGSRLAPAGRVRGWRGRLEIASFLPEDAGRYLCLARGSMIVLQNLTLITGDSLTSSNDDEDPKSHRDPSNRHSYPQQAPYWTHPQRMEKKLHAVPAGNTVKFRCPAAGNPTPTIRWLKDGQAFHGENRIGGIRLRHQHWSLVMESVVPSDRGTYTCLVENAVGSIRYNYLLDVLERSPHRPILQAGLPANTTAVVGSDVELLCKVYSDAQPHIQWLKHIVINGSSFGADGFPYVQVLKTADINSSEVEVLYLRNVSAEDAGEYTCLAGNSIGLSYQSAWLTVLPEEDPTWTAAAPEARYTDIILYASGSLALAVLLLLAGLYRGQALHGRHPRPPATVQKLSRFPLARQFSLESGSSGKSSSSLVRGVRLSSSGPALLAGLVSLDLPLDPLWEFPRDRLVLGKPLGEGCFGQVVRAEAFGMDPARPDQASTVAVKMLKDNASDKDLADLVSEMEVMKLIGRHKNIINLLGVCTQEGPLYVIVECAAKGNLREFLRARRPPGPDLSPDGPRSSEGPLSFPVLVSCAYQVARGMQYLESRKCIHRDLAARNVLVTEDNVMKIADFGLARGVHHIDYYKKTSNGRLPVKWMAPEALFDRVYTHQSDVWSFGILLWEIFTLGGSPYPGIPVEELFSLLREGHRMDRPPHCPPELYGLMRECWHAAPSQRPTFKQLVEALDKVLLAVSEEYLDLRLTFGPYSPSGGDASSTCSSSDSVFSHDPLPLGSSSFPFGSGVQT
Protocol: as §1, §2

[3] = molecular target: T3, FGFR2 kinase recombinant protein (Homo sapiens, UniProt P21802); assay: Inhibition of FGFR kinase activity, ADP-Glo method; type: biochemical; conditions: 30 min preincubation
T3 construct: purchased Promega
T3 sequence (P21802 22-821): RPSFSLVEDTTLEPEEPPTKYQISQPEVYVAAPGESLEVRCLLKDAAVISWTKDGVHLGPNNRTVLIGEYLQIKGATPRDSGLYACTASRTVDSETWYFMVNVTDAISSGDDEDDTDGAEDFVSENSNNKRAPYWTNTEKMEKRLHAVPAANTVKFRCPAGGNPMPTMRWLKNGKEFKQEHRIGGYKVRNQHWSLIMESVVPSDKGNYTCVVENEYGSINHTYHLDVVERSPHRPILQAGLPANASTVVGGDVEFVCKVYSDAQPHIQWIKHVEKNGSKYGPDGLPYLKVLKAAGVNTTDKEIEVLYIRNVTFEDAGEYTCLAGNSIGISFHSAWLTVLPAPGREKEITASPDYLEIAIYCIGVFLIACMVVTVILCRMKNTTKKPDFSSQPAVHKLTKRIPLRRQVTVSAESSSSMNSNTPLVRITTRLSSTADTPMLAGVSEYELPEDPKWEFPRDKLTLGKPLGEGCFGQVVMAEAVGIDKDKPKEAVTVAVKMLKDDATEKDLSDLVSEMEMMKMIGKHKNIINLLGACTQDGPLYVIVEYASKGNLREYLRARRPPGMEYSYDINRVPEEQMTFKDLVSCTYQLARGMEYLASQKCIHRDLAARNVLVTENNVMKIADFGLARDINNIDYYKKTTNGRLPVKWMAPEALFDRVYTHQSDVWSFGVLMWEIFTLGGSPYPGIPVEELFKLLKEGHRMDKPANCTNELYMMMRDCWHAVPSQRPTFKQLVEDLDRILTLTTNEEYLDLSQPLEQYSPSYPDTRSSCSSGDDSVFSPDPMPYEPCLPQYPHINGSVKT
Protocol: as §1, §2

[4] = molecular target: T4, FGFR1 kinase recombinant protein (Homo sapiens, UniProt P11362); assay: Inhibition of FGFR kinase activity, ADP-Glo method; type: biochemical; conditions: 30 min preincubation
T4 construct: purchased Promega
T4 sequence (P11362 22-822): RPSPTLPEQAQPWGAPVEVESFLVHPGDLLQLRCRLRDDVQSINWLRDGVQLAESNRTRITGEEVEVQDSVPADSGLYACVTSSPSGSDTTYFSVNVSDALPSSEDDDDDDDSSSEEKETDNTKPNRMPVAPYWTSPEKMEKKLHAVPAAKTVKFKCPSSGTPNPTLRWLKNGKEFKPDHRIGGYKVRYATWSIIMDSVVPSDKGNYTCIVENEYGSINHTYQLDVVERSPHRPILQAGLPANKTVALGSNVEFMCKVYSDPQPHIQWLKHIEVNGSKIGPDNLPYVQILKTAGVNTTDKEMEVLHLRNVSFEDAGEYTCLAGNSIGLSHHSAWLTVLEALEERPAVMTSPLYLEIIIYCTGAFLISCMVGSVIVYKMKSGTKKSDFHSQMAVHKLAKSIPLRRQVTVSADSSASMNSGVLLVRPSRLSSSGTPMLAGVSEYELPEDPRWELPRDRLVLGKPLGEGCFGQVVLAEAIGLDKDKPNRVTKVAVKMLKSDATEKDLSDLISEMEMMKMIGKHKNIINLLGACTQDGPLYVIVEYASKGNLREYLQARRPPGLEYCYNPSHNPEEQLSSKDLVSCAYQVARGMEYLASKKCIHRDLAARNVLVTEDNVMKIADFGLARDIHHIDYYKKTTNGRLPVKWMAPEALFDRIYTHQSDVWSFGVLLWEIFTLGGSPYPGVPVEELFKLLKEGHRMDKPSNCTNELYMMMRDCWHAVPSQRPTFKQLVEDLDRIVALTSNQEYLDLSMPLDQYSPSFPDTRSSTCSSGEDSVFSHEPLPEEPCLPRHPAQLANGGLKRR
Protocol: as §1, §2

[5] = tested on: HCC cells with FGF19 gene amplification; assay: HCC cell line panel proliferation, selectivity conclusion; type: cell-based; conditions: conclusion from Table 2
Protocol: (§3) The inhibitory activities of the compounds of the examples on cell proliferation in vitro were tested using five hepatocellular carcinoma cell lines: Hep3B, Huh7, JHH-7, SK-hep-1, SNU423. The above cells were all from ATCC (American Type Culture Collection). Among them, Hep3B, Huh-7, JHH-7 these three cell lines all have FGF19 gene amplification (increased copy number) and increased mRNA expression level, as well as high level expression of FGFR4 and KLB gene mRNA; SK-hep-1, SNU423 cell lines have no FGF19 gene amplification and the expression level of FGF19 mRNA was very low (Barretina J, Caponigro G, et al. Nature 2012; 483: 603-7.).
(§4) Cell proliferation was measured using the SRB (Sulforhodamine-B, sulforhodamine B) method. The cells were cultured to a cell fusion of more than 90% and then trypsinized. After counting, the cells were inoculated into 96-well plates at 6000 cells/well. After adherent culture overnight, the test compound was dissolved in DMSO and diluted with complete medium, added to the culture wells to form a 5-fold dilution of 10 concentration gradients from 10 μM. The cells were incubated for further 72 hours, 50 μl of 50% trichloroacetic acid was added to each well and fixed at 4° C. for 1 hour. The trichloroacetic acid in each well was discarded and washed 5 times with 300 μl of double distilled water. After drying at room temperature, 50 μl of 0.4% SRB dye solution (1% acetic acid/0.4% SRB) was added to each well to react for 15 min. The dye solution of each well was discarded, washed 6-7 times with 1% acetic acid, and dried at room temperature. 200 μl of 10 mM Tris solution (pH=10.5) was added to each well and shaken until the solution was clear. The absorbance at 490 nm of each well was measured by a microplate reader. The reading of the wells where the concentration of the test compound was 0 was used as a control, and fitted with Origin 7.5 software, the IC50 value (nM) of the test substance for inhibiting cell proliferation was calculated.

[6] = tested on: Hep3B transplantation tumor; assay: HCC cell subcutaneous transplantation tumor growth inhibition test in nude mice; type: in vivo; conditions: for growth inhibition of the transplantation tumor: 50 mg/kg, intragastric, BID 21 days, Hep3B nude mice; for adverse reactions (water and food take, activity, body weight) during administration: all dose groups 50, 100, 150 mg/kg BID, 21 days, tumor-bearing nude mice
Protocol: The Hep3B cells in the logarithmic growth phase were cultured and collected, and subcutaneously inoculated into the right back of nude mice (female Balb/c Nude mice, from Beijing Vitalriver) at 1×10^7 cells/mouse. When the tumor grew to 50-300 mm^3, tumor-bearing nude mice were randomly grouped, 6 animals per group. Subsequently, each group of animals was administered at the following dose, and the day of the first dose was defined as the first day of the test.
Blank solvent (ultra-pure water) control group, compound 1, compound 2 were respectively set to 50 mg/kg, 100 mg/kg, 150 mg/kg three dose groups, intragastric administration, twice a day (BID), for 21 consecutive days. The state of the animals was observed daily during the administration; the body weight was measured once a week before the first administration; and the body weight was measured twice a week after the start of the administration. The size of the transplantation tumor was measured every 3 days after the start of administration. Tumor volume (TV)=½×a×b^2, wherein, a and b represent the length and width of the tumor, respectively. The relative tumor volume (RTV) was calculated based on the measured results, RTV=Vt/V0×100, wherein V0 is the measured tumor volume on the day of the cage (i.e., day 0), and Vt is the tumor volume at each measurement.
After establishing the Hep3B nude mice transplantation tumor model according to the method described above, the mice were divided into three groups and intragastrically administered with a blank solvent (ultra-pure water) control, compound 1 (15 mg/kg, BID), sorafenib (prepared according to the method described in the literature CN1721397A and identified) respectively, 30 mg/kg, once a day (QD), for 21 consecutive days. The growth inhibition on the transplantation tumor of the test substances, animal status and body weight were evaluated in the same manner as above. The tumor volume (TV) was measured and the tumor inhibition rate was calculated according to the tumor inhibition rate (TGI)=(1−T/C)×100%. C: average tumor volume of the control group; T: average tumor volume of the administration group.

Hep3B = assay: HCC cell proliferation inhibition, SRB method; type: cell-based; conditions: Homo sapiens, 72 hours
Protocol: as §3, §4
(§5) The antitumor cell proliferation activities of the compounds of the present invention were measured by the above test, and the measured IC50 (nM) values are shown in Table 2.

SK-hep-1 = assay: HCC cell proliferation inhibition, SRB method; type: cell-based; conditions: Homo sapiens, SK-HEP1, 72 hours
Protocol: as §3, §4, §5

JHH-7 = assay: HCC cell proliferation inhibition, SRB method; type: cell-based; conditions: JHH7, 72 hours
Protocol: as §3, §4, §5

HUH-7 = assay: HCC cell proliferation inhibition, SRB method; type: cell-based; conditions: Homo sapiens, 72 hours
Protocol: as §3, §4, §5

SNU387 = assay: HCC cell proliferation inhibition, SRB method; type: cell-based; conditions: Homo sapiens, SNU-387, 72 hours
Protocol: [Worded in the source for another cell line; this cell line is reported under the same test.] as §3, §4, §5

T1 sequence (P22607 23-806): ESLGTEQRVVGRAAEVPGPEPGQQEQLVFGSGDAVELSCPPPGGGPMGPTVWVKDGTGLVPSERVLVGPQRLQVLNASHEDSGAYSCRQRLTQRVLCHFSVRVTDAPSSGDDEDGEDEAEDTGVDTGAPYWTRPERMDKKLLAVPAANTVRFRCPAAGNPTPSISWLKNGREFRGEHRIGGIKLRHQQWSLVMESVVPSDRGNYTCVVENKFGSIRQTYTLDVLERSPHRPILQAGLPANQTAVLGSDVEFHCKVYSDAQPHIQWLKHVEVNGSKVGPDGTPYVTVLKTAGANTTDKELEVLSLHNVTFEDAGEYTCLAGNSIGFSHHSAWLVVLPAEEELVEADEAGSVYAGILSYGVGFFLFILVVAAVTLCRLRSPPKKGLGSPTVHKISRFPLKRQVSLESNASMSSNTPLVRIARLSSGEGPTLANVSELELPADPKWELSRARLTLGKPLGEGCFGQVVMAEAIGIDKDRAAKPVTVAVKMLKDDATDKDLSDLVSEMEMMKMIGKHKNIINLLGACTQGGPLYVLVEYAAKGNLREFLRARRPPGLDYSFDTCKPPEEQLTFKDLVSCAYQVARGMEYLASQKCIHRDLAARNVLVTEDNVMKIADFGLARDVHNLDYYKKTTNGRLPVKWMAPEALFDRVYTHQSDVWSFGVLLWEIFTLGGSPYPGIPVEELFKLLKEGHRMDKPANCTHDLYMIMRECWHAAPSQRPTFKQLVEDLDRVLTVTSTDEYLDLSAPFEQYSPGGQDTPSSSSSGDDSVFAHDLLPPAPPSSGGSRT

| Structure (SMILES) | IC50 [1] [nM] | IC50 [2] [nM] | IC50 [3] [nM] | IC50 [4] [nM] | selective inhibitory effect on HCC cells with FGF19 gene amplification [5] | growth inhibition of the transplantation tumor [6] | adverse reactions (water and food take, activity, body weight) during administration [6] | efficacy compared with sorafenib 30 mg/kg QD ([6]; compound 1 15 mg/kg BID, Hep3B nude mouse transplantation tumor model) | IC50 (Hep3B) [nM] | IC50 (SK-hep-1) [nM] | IC50 (JHH-7) [nM] | IC50 (HUH-7) [nM] | IC50 (SNU387) [nM] |
| --- | --- | --- | --- | --- | --- | --- | --- | --- | --- | --- | --- | --- | --- |
| C#CCNc1cc(NC(=O)N2CCCc3cc(CN4CCN(C)CC4=O)c(C=O)nc32)ncc1C#N [Compound 1] | > 1000 | 0.41 | > 1000 | > 1000 | significant selective inhibitory effect | significant | no adverse reactions occurred | superior to that of sorafenib | 0.35 | > 1000 | 3 | 4 | > 1000 |
| C#CCCNc1cc(NC(=O)N2CCCc3cc(CN4CCN(C)CC4=O)c(C=O)nc32)ncc1C#N [Compound 2] | > 1000 | 0.33 | > 1000 | > 1000 | significant selective inhibitory effect | significant | no adverse reactions occurred | – | 0.4 | > 1000 | 2.6 | 2.9 | > 1000 |
| C#CCCNc1cc(NC(=O)N2CCCc3cc(CN4CCOCC4=O)c(C=O)nc32)ncc1C#N [Compound 3] | > 1000 | 0.62 | > 1000 | > 1000 | significant selective inhibitory effect | – | – | – | 0.62 | – | – | 5.7 | > 1000 |
| [2H]C([2H])([2H])N1CCN(Cc2cc3c(nc2C=O)N(C(=O)Nc2cc(NCCC#C)c(C#N)cn2)CCC3)C(=O)C1 [Compound 4] | > 1000 | 0.37 | > 1000 | > 1000 | significant selective inhibitory effect | – | – | – | 0.36 | – | – | 2.8 | > 1000 |
| C#CCCCNc1cc(NC(=O)N2CCCc3cc(CN4CCN(C)CC4=O)c(C=O)nc32)ncc1C#N [Compound 6] | > 1000 | 0.59 | > 1000 | > 1000 | significant selective inhibitory effect | – | – | – | 0.53 | – | – | 4.9 | > 1000 |
